Patent publication US5134073A, “Microbiologically produced N-acetyl-2,3-didehydroleucine acylase” (Degussa Aktiengesellschaft, priority 1989, dated 1992)
Several values for one entry are separate records, joined by “and”; a condition that tells them apart may be missing. Identical values can stand only once. Like-named read-outs stand apart in the source and are kept apart here. Where a SMILES comes first, the peptide text is derived from it.

Assays:
Zoogloea ramigera ABI 1 = test: Induction of N-acetyldehydroleucine acylase in agitated cultures, changing of the inductor; assay type: cell-based; details: inductor 3 g/l, agitated culture, pH 7
Procedure: All raw extracts were tested at least with N-acetyldehydroleucine and N-acetyldehydroisoleucine but, in most cases, also with N-acetyldehydrovaline. […] The enzymatic reaction was stopped in the batches incubated at 30° C. by adding 0.25 ml color reagent (1 g/l 2,4-dinitrophenyl hydrazine in 2 N HCl). After further incubation at 30° C. for 10 minutes with N-acetyldehydroleucine as substrate or 25 minutes with the isoleucine or valine derivative, 1.5 ml 2,5 N NaOH was added.
The keto acid released by the enzymatic hydrolysis forms, together with the 2,4-dinitrophenyl hydrazine, a Schiff's base colored red in the alkaline whose absorption was measured in a spectral photometer at 442 nm against a batch without N-acetyldehydroamino acid (=enzyme blank). A blank reading was deducted from these extinction values which blank reading is obtained if the extinction value of a batch only with buffer (=buffer blank) is deducted from that of a batch with buffer and N-acetyldehydroamino acid but without raw extract (=substrate blank). The concentration of the product produced was determined with a calibrated reference for the corresponding keto acid. The enzyme activity is indicated in international units. One unit (U) corresponds to an amount of 1 μmole released keto acid per minute.
Different substances were added in a concentration of 3 g/l as inductors into agitated cultures with a medium of mineral salt solution (cf. Example 1) with 0.5 g/l yeast extract and 0.5 g/l peptone at pH 7. The technology for agitated cultures is described in Example 1 a).

[1] = test system: N-acetyldehydroleucine acylase; test: Influence of additive substances on the splitting of N-acetyldehydroleucine under standard conditions; assay type: biochemical, Zoogloea ramigera
Procedure: The mixing together of the batches, their storage and the taking of specimens took place under sterile conditions. The standard conditions for the enzyme test were:
20 mM N-Acetyldehydroleucine

[2] = test system: N-acetyldehydroleucine acylase; test: Hydrolysis of other compounds by the acylase (TLC / amino acid analyzer); assay type: biochemical, Zoogloea ramigera; details: for rel. activity (%): 50 mM test substrate, 0.1 M tris/HCl pH 9, 25° C., hydrolysis rate with N-acetyldehydroleucine = 100%
Procedure: A qualitative check was performed for 81 compounds to see whether they are accepted as substrate by the acylase. The test batches contained:
After 16 and 40 hours incubation at 25° C., specimens were taken from the batches, most of which specimens were analyzed in comparison to substrate standards by means of thin-layer chromatography (70% (v/v) ethanol as mobile solvent). The detection took place with ninhydrin spray reagent. A few specimens were tested in addition or alternatively with the amino acid analyzer.
The amino acids produced from the amino acid amides by means of the action of acylase were detected quantitatively with the amino acid analyzer.

[3] = test system: N-acetyldehydroleucine acylase; test: Acylase activity versus concentration of N-acetyldehydroamino acids (kinetic data); assay type: biochemical, Zoogloea ramigera; details: glycine, 0.1 M, pH 9, 30° C.
Procedure: The activity of the acylase was determined under standard conditions (cf. Example 8a)) with various N-acetyldehydroamino acids in concentrations of 0.1 to 300 mM. A second series of measurements with N-acetyldehydroleucinein the above-indicated concentration range was placed in 0.1 M tris/phosphoric acid buffer.
Reaction conditions: 0.1 M glycine, pH 9, 30° C.
Adaptation to the equation v = Vmax. · S/(KM + S +

ADL acylase = test: Stability of the acylase in the presence of different anions; assay type: physicochemical, Zoogloea ramigera; details: sodium salt 0.5 M in 50 mM glycine pH 11, 20° to 25° C., raw extract; 500000 µM
Procedure: The influence of different anions on the stability of ADL acylase was investigated. Raw extract which had been compounded with glycerin to 43.5% (w/v) was diluted 1 : 10 with 0.5 molar solutions of various sodium salts in 50 mM glycine (pH 11) and stored at room temperature (20° to 25° C.). Specimens were taken from time-to-time and their enzymatic activity measured under standard conditions, as described in Example 8a).

Row | rel. activity (%) [2] | Compound | % Residual activity ([1]; inhibitor 1 mM) | % Residual activity ([1]; inhibitor 10 mM) | also measured
1 |  | CC(=O)NC(Cc1ccccc1)C(=O)O (racemic) [Ac-D,L-phenylalanine] |  |  | Acylase activity after 60 hours of incubation as a function of the inductor (Zoogloea ramigera ABI 1): 0.031 U/mg
2 |  | CC(=O)NC(Cc1c[nH]c2ccccc12)C(=O)O (racemic) [Ac-D,L-tryptophan] |  |  | Acylase activity after 60 hours of incubation as a function of the inductor (Zoogloea ramigera ABI 1): 0.018 U/mg
3 |  | CC(=O)NC(Cc1ccc(O)cc1)C(=O)O (racemic) [Ac-D,L-tyrosine] |  |  | Acylase activity after 60 hours of incubation as a function of the inductor (Zoogloea ramigera ABI 1): 0.011 U/mg
4 |  | O[C@H](CS)[C@H](O)CS (racemic) [Dithiothreitol] | 103% | 58% | 
5 | 0% | CC(=O)NC(CC(C)C)C(=O)O (racemic) [N-acetyl-D,L-leucine] |  |  | 
6 | 0% | CC(C)CC(NC(=O)c1ccccc1)C(=O)O (racemic) [N-benzoyl-D,L-leucine] |  |  | 
7 | 0% | COC(=O)NC(CC(C)C)C(=O)O (racemic) [N-methoxycarbonyl-D,L-leucine] |  |  | 
8 | 0% | COC(=O)NC(C(=O)O)C(C)C (racemic) [N-methoxycarbonyl-D,L-valine] |  |  | 
9 | 0% | CNC(CC(C)C)C(=O)O (racemic) [N-methyl-D,L-leucine] |  |  | 
10 |  | C=C(NC(C)=O)C(=O)O [ADA, 2-acetylamino acrylic acid] |  |  | % Vmax [3]: 90%; Km [3]: 6.68 mM; Substrate specificity: hydrolysis by the acylase [2]: hydrolyzes
11 |  | CC(=O)O [Acetate] |  |  | % Residual activity after 3 days (ADL acylase): 86%; % Residual activity after 6 days (ADL acylase): 81%; % Residual activity after 21 days (ADL acylase): 6%
12 |  | c1ccc(-c2ccccn2)nc1 [Bipyridine] | 91% | 70% | 
13 |  | [Ca+2].[Cl-].[Cl-] [CaCl2] |  | 93% | 
14 |  | Cl [Chloride] |  |  | % Residual activity after 3 days (ADL acylase): 35%; % Residual activity after 6 days (ADL acylase): 0%; % Residual activity after 21 days (ADL acylase): 0%
15 |  | O=C(O)CC(O)(CC(=O)O)C(=O)O [Citrate] | 99% | 84% | 
16 |  | [Cl-].[Cl-].[Co+2] [CoCl2] | 91% | 85% | 
17 |  | O=S(=O)([O-])[O-].[Cu+2] [CuSO4] | 87% | 83% | 
18 |  | N[C@@H]1CON=C1O [Cycloserine] | 111% | 105% | 
19 | 0.46% | C[C@@H](N)C(N)=O [D-alanine amide] |  |  | 

Row | rel. activity (%) [2] | Compound | % Residual activity ([1]; inhibitor 1 mM) | % Residual activity ([1]; inhibitor 10 mM) | also measured
20 | 3.82% | CC(C)C[C@@H](N)C(N)=O [D-leucine amide] |  |  | Substrate specificity: hydrolysis by the acylase [2]: hydrolyzes
21 |  | NC(=O)[C@H](N)Cc1c[nH]c2ccccc12 [D-tryptophane amide] |  |  | Substrate specificity: hydrolysis by the acylase [2]: hydrolyzes
22 |  | O=C(O)CN(CCN(CC(=O)O)CC(=O)O)CC(=O)O [EDTA] |  |  | % Residual activity [1]: 95%
23 |  | O=CO [Formate] |  |  | % Residual activity after 3 days (ADL acylase): 76%; % Residual activity after 6 days (ADL acylase): 63%; % Residual activity after 21 days (ADL acylase): 2%
24 |  | N[C@@H](CCC(=O)N[C@@H](CS)C(=O)NCC(=O)O)C(=O)O [Glutathione reduced] |  |  | % Residual activity [1]: 95%
25 |  | [Cl][Hg][Cl] [HgCl2] | 84% | 70% | 
26 | 0.35% | C[C@H](N)C(N)=O [L-alanine amide] |  |  | 
27 | 0% | C[C@H](N)C(=O)N[C@@H](Cc1ccccc1)C(N)=O [L-alanyl-L-phenylalanine amide] |  |  | 
28 | 6.80% | CC(C)C[C@H](N)C(N)=O [L-leucine amide] |  |  | Substrate specificity: hydrolysis by the acylase [2]: hydrolyzes
29 | 4.69% | CSCC[C@H](N)C(N)=O [L-methionine amide] |  |  | Substrate specificity: hydrolysis by the acylase [2]: hydrolyzes
30 | 20.4% | NC(=O)[C@@H](N)Cc1c[nH]c2ccccc12 [L-tryptophane amide] |  |  | Substrate specificity: hydrolysis by the acylase [2]: hydrolyzes
31 | 0% | N[C@@H](Cc1c[nH]c2ccccc12)C(=O)NCC(=O)O [L-tryptophyl glycine] (H-Trp-Gly-OH) |  |  | 
32 |  | OCCS [MeSH, mercaptoethanol] | 93% | 99% | % Residual activity ([1]; inhibitor 100 mM): 81%
33 |  | [Cl-].[Cl-].[Mg+2] [MgCl2] | 95% | 88% | 
34 |  | [Cl][Mn][Cl] [MnCl2] | 99% | 87% | 
35 | 0% | CC(=O)NCC(=O)O [N-acetyl glycine] |  |  | 
36 |  | CC(=O)N[C@@H](CC(C)C)C(=O)O [N-acetyl leucine] |  |  | Substrate specificity: hydrolysis by the acylase [2]: not
37 |  | CC(=O)N[C@H](C(=O)O)C(C)C [N-acetyl valine] |  |  | Substrate specificity: hydrolysis by the acylase [2]: not
38 | 0% | CC(=O)N[C@@H](C)C(=O)N[C@H](C(=O)O)C(C)C [N-acetyl-L-alanyl-L-valine] (Ac-Ala-Val-OH) |  |  | 

Row | rel. activity (%) [2] | Compound | % Residual activity ([1]; inhibitor 1 mM) | % Residual activity ([1]; inhibitor 10 mM) | also measured
39 | 0% | CC(=O)N[C@@H](Cc1ccccc1)C(=O)O [N-acetyl-L-phenylalanine] |  |  | 
40 | 0% | NC(=O)N[C@@H](Cc1ccccc1)C(=O)O [N-carbamoyl-L-phenylalanine] |  |  | 
41 | 0% | CC(C)[C@H](NC(N)=O)C(=O)O [N-carbamoyl-L-valine] |  |  | 
42 | 0% | CN[C@@H](CCC(=O)O)C(=O)O [N-methyl-L-glutamic acid] |  |  | 
43 |  | [N-]=[N+]=[N-].[Na+] [NaN3] | 105% | 103% | 
44 |  | CN(C)C(=O)Oc1cccc([N+](C)(C)C)c1 [Neostigmine] | 102% | 82% | % Residual activity ([1]; inhibitor 100 mM): 0%
45 |  | O=S(=O)(F)Cc1ccccc1 [PMSF, phenylmethane sulfonyl fluoride] |  |  | % Residual activity ([1]; inhibitor 0.0001 mM): 10%; % Residual activity ([1]; inhibitor 0.01 mM): 0%; Inhibition of the acylase ([1]; phenylmethane sulfonyl fluoride still in micromolar concentration): sharply inhibit; Influence of inhibitors on the acylase ([1]; phenylmethane sulfonylfluoride: 0.001 mM): exert an inhibitory action
46 |  | c1cnc2c(c1)ccc1cccnc12 [Phenanthroline] | 94% | 52% | 
47 |  | NNC(N)=O [Semicarbazide] | 113% | 93% | 
48 |  | O=S(=O)(O)O [Sulfate] |  |  | % Residual activity after 3 days (ADL acylase): 89%; % Residual activity after 6 days (ADL acylase): 94%; % Residual activity after 21 days (ADL acylase): 15%
49 |  | [Cl-].[Cl-].[Zn+2] [ZnCl2] | 95% | 82% | 
50 |  | NC(=O)CI [iodine acetamide] | 104% | 74% | 
51 |  | O=C(O)CI [iodine acetate] |  |  | % Residual activity [1]: 76% and 49%
52 |  | N=C(N)c1ccc(N)cc1 [pABA, paraaminobenzamidine] |  | 89% | % Residual activity ([1]; inhibitor 100 mM): 54%; % Residual activity ([1]; inhibitor 200 mM): 0%
53 |  | O=C(O)c1cc[c]([Hg][OH])cc1 [pCMB, parahydroxy mercury benzoate] | 104% | 98% | 
54 |  | O=C(O)c1cc[c]([Hg][OH])cc1 [pOHMB, parahydroxy mercuric benzoate] | 93% | 91% | 
55 |  | NC(=O)[C@@H](N)Cc1c[nH]c2ccccc12 [tryptophane amide] |  |  | Substrate specificity: hydrolysis by the acylase [2]: split with a reaction rate on the order like that achieved with N-acetyldehydroamino acids
56 |  | Phosphate |  |  | % Residual activity after 3 days (ADL acylase): 96%; % Residual activity after 6 days (ADL acylase): 105%; % Residual activity after 21 days (ADL acylase): 27%

Row | Compound | rel. activity (%) [2] | % Residual activity ([1]; inhibitor 1 mM) | % Residual activity ([1]; inhibitor 10 mM) | also measured
57 | CC(C)C[C@H](NC(=O)CN)C(=O)O [Glycyl-L-leucine] | 0% |  |  | 
58 | C[C@H](N)C(=O)NCC(=O)O [L-alanyl glycine] (H-Ala-Gly-OH) | 0% |  |  | 
59 | CC(C)C[C@H](NC(=O)[C@H](C)N)C(=O)O [L-alanyl-L-leucine] (H-Ala-Leu-OH) | 0% |  |  | 
60 | CC(C)C[C@H](N)C(=O)NCC(=O)O [L-leucyl glycine] (H-Leu-Gly-OH) | 0% |  |  | 
